Source: ChEMBL document CHEMBL4433235, “Discovery of piperazic acid peptide deformylase inhibitors with in vivo activity for respiratory tract and skin infections” (Bioorg Med Chem Lett, 2019)
In brackets after ≈: the same amount, converted by molar mass.

Key:
Peptide deformylase [1] = target: T1, Peptide deformylase (Staphylococcus aureus, UniProt P68826); assay: Inhibition of Staphylococcus aureus PDF by absorbance detection assay
T1 sequence (P68826 whole entry): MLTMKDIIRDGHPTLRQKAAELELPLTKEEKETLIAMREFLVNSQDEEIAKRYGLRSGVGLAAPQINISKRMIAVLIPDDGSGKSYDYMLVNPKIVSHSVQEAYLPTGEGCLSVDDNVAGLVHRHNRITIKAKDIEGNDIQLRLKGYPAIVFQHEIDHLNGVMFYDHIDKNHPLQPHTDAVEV

[2] = Inhibition of Haemophilus influenzae PDF by absorbance detection assay
[3] = Inhibition of Streptococcus pneumoniae PDF by absorbance detection assay
Staphylococcus aureus [4] = assay: Antimicrobial activity against Staphylococcus aureus Oxford; format: functional
Haemophilus influenzae [5] = assay: Antimicrobial activity against Haemophilus influenzae Q1; format: functional
Streptococcus pneumoniae [6] = assay: Antimicrobial activity against Streptococcus pneumoniae 1629; format: functional
[7] = Chromatographic hydrophobicity index, log D of compound at pH 7.4; format: physicochemical; settings: buffer
[8] = Solubility of compound by chemiluminescent nitrogen detection assay; format: physicochemical
Staphylococcus aureus [9] = assay: Antimicrobial activity against Staphylococcus aureus; format: functional
Haemophilus influenzae [10] = assay: Antimicrobial activity against Haemophilus influenzae; format: functional
Streptococcus pneumoniae [11] = assay: Antimicrobial activity against Streptococcus pneumoniae; format: functional
Peptide deformylase [12] = target: T1, Peptide deformylase; assay: Inhibition of Staphylococcus aureus PDF by fluorescence detection assay
[13] = Inhibition of Haemophilus influenzae PDF by fluorescence detection assay
[14] = Inhibition of Streptococcus pneumoniae PDF by fluorescence detection assay
[15] = Half life in rat at 3 mg/kg, iv; format: ADME, organism-based; settings: in vivo
[16] = Clearance in rat at 3 mg/kg, iv; format: ADME, organism-based; settings: in vivo
[17] = Volume of distribution at steady state in rat at 3 mg/kg, iv; format: ADME, organism-based; settings: in vivo, read-out: Vdss
[18] = AUC in rat at 3 mg/kg, iv; format: ADME, organism-based; settings: in vivo
[19] = Half life in rat at 5 mg/kg, po; format: ADME, organism-based; settings: in vivo
[20] = Cmax in rat at 5 mg/kg, po; format: ADME, organism-based; design: dose 5 mg/kg, route oral; settings: in vivo
[21] = AUC in rat at 5 mg/kg, po; format: ADME, organism-based; settings: in vivo
[22] = Oral bioavailability in rat at 5 mg/kg; format: ADME, organism-based; settings: in vivo
Streptococcus pneumoniae [23] = assay: Antimicrobial activity against Streptococcus pneumoniae Ery-2; format: functional
Streptococcus pneumoniae [24] = assay: Antimicrobial activity against Streptococcus pneumoniae Ery-2 infected in respiratory tract infection rat model assessed as log reduction in bacterial CFU at 150 mg/kg, po BID dosed 1 hr post infection and measured for 96 hrs; format: functional
Streptococcus pneumoniae [25] = assay: Antimicrobial activity against Streptococcus pneumoniae Ery-2 infected in respiratory tract infection rat model assessed as log reduction in bacterial CFU at 300 mg/kg, po BID dosed 1 hr post infection and measured for 96 hrs; format: functional

| IC50 (Peptide deformylase [1]) [nM] | IC50 [2] [nM] | IC50 [3] [nM] | MIC (Staphylococcus aureus [4]) [µg/mL] | MIC (Haemophilus influenzae [5]) [µg/mL] | MIC (Streptococcus pneumoniae [6]) [µg/mL] | CHI [7] | solubility kinetic [8] [µM] | SMILES | further results |
| --- | --- | --- | --- | --- | --- | --- | --- | --- | --- |
| 5 | 2 | 1 | 4 (≈ 9.94 µM) | 1 (≈ 2.48 µM) | 2 (≈ 4.97 µM) | 4.82 | > 534 | O=CN(O)C[C@@H](CC1CCCC1)C(=O)N1NCCC[C@H]1C(=O)Nc1ccccc1 | – |
| 2 | 4 | 0.6 | 1 (≈ 2.47 µM) | 0.5 (≈ 1.24 µM) | 4 (≈ 9.89 µM) | 2.69 | 303 (≈ 123 µg/mL) | O=CN(O)C[C@@H](CC1CCCC1)C(=O)N1NCCC[C@H]1C(=O)Nc1cccnn1 | – |
| – | – | – | 16 (≈ 31.8 µM) | 2 (≈ 3.98 µM) | 4 (≈ 7.96 µM) | 2.57 | > 359 | CN1CCN(c2cncc(NC(=O)[C@@H]3CCCNN3C(=O)[C@H](CC3CCCC3)CN(O)C=O)n2)CC1 | IC50 (Peptide deformylase [12]): 10 nM; IC50 [14]: 2 nM |
| 1 | 2 | 0.4 | 1 (≈ 2.28 µM) | 1 (≈ 2.28 µM) | 1 (≈ 2.28 µM) | 3.38 | 530 (≈ 232 µg/mL) | CCc1nnc(NC(=O)[C@@H]2CCCNN2C(=O)[C@H](CC2CCCC2)CN(O)C=O)s1 | MIC90 (Staphylococcus aureus [9]): 2 µg/mL (≈ 4.56 µM); MIC90 (Haemophilus influenzae [10]): 2 µg/mL (≈ 4.56 µM); MIC90 (Streptococcus pneumoniae [11]): 1 µg/mL (≈ 2.28 µM); half-life [15]: 6.7 h; clearance [16]: 20 mL/min/kg; Vd [17]: 4 L/kg; AUC [18]: 2140 ng·h/mL; half-life [19]: 4.7 h; Cmax [20]: 711 ng/mL; AUC [21]: 1580 ng·h/mL; bioavailability [22]: 36%; MIC (Streptococcus pneumoniae [23]): 0.5 µg/mL (≈ 1.14 µM); Activity (Streptococcus pneumoniae [24]): 0.8 log10CFU/ml; Activity (Streptococcus pneumoniae [25]): 1.7 log10CFU/ml |

Second part, the compound before the results:

| SMILES | IC50 (Peptide deformylase [1]) [nM] | IC50 [2] [nM] | IC50 [3] [nM] | MIC (Staphylococcus aureus [4]) [µg/mL] | MIC (Haemophilus influenzae [5]) [µg/mL] | MIC (Streptococcus pneumoniae [6]) [µg/mL] | CHI [7] | solubility kinetic [8] [µM] | further results |
| --- | --- | --- | --- | --- | --- | --- | --- | --- | --- |
| O=CN(O)C[C@@H](CC1CCCC1)C(=O)N1NCCC[C@H]1C(=O)Nc1ccncn1 | 2 | 6 | 0.3 | 2 (≈ 4.94 µM) | 1 (≈ 2.47 µM) | 2 (≈ 4.94 µM) | 2.7 | > 464 | MIC90 (Staphylococcus aureus [9]): 1 µg/mL (≈ 2.47 µM); MIC90 (Haemophilus influenzae [10]): 2 µg/mL (≈ 4.94 µM); MIC90 (Streptococcus pneumoniae [11]): 2 µg/mL (≈ 4.94 µM) |
| Cc1cccnc1NC(=O)[C@@H]1CCCNN1C(=O)[C@H](CC1CCCC1)CN(O)C=O | – | – | – | 8 (≈ 19.2 µM) | 2 (≈ 4.79 µM) | 8 (≈ 19.2 µM) | 2.94 | 483 (≈ 202 µg/mL) | IC50 (Peptide deformylase [12]): 16 nM; IC50 [13]: 79 nM; IC50 [14]: 10 nM |
| O=CN(O)C[C@@H](CC1CCCC1)C(=O)N1NCCC[C@H]1C(=O)N1CCCCC1 | 6 | 8 | 2 | 1 (≈ 2.53 µM) | 2 (≈ 5.07 µM) | 4 (≈ 10.1 µM) | 3.3 | > 739 | – |
| CCCNC(=O)[C@@H]1CCCNN1C(=O)[C@H](CC1CCCC1)CN(O)C=O | 11 | 5 | 3 | 4 (≈ 10.9 µM) | 0.5 (≈ 1.36 µM) | 4 (≈ 10.9 µM) | 3.19 | > 544 | – |
| CN(C)c1cncc(NC(=O)[C@@H]2CCCNN2C(=O)[C@H](CC2CCCC2)CN(O)C=O)n1 | – | – | – | 1 (≈ 2.23 µM) | 1 (≈ 2.23 µM) | 1 (≈ 2.23 µM) | 3.65 | > 515 | IC50 (Peptide deformylase [12]): 5 nM; IC50 [13]: 16 nM; IC50 [14]: 0.79 nM; half-life [15]: 7 h; clearance [16]: 73 mL/min/kg; Vd [17]: 13 L/kg; AUC [18]: 685 ng·h/mL; half-life [19]: 10 h; Cmax [20]: 53 ng/mL; AUC [21]: 169 ng·h/mL; bioavailability [22]: 15% |
| Cc1nc(NC(=O)[C@@H]2CCCNN2C(=O)[C@H](CC2CCCC2)CN(O)C=O)sc1C | 0.63 | 1 | 0.2 | 0.25 (≈ 0.571 µM) | 2 (≈ 4.57 µM) | 1 (≈ 2.29 µM) | 4.29 | 381 (≈ 167 µg/mL) | MIC90 (Staphylococcus aureus [9]): 0.5 µg/mL (≈ 1.14 µM); MIC90 (Haemophilus influenzae [10]): 2 µg/mL (≈ 4.57 µM); MIC90 (Streptococcus pneumoniae [11]): 0.5 µg/mL (≈ 1.14 µM); half-life [15]: 1.1 h; clearance [16]: 49 mL/min/kg; Vd [17]: 1.6 L/kg; AUC [18]: 1030 ng·h/mL; half-life [19]: 3.8 h; Cmax [20]: 349 ng/mL; AUC [21]: 700 ng·h/mL; bioavailability [22]: 41% |
| O=CN(O)C[C@@H](CC1CCCC1)C(=O)N1NCCC[C@H]1C(=O)Nc1cnccn1 | 1 | 3 | 0.3 | 2 (≈ 4.94 µM) | 0.25 (≈ 0.618 µM) | 8 (≈ 19.8 µM) | 2.87 | > 586 | – |
